{"source": "patent US12343350B2", "about": "“Istaroxime-containing intravenous formulation for the treatment of acute heart failure (AHF)” (Windtree Therapeutics, Inc., priority 2019, dated 2025)", "tested_on": "patients with Acute Decompensated Heart Failure", "test": "Clinical study of istaroxime 24 h i.v. infusion in Acute Decompensated Heart Failure, echocardiography", "type": "in vivo, human", "procedure": "Echocardiography was performed on patients according to international standards (see, for example, Lang R M et al., J Am Soc Echocardiogr 2005; 18(12):1440-63; Nagueh S F et al., Eur J Echocardiogr 2009; 10(2):165-93; Evangelista A et al., Eur J Echocardiogr 2008; 9(4):438-48). Echocardiography was performed by expert physicians or sonographers at the sites. Echocardiography was done at screening, baseline, 6 hours after infusion start, 24 hours after infusion start (just before the end of infusion), and 48 hours after infusion start.\nThe following parameters were recorded for each patient at each timepoint and centrally measured by the CoreLab: • 1. Cardiac dimension measures: • a. Left ventricle end diastolic diameter (EDD): measured with M-mode echocardiography at the level of mitral valve (MV) leaflets from parasternal long axis view (PLAX) (normal range [NR]: 42-59 mm males and 39-53 mm females); • b. Left ventricle end systolic diameter (ESD): measured with M-mode echocardiography at the level of mitral valve (MV) leaflets from PLAX (NR: 25-35 mm); • c. Left ventricle end diastolic volume (EDV): measured with M-mode echocardiography at the level of mitral valve (MV) leaflets from PLAX (NR: 67-155 mL males and 56-104 mL females); • d. Left ventricle end systolic volume (ESV): measured with M-mode echocardiography at the level of mitral valve (MV) leaflets from PLAX (NR: 22-58 mL males and 19-49 mL females); • e. Left atrium diameter (LAD): measured at end-ventricular systole with M-mode echocardiography from PLAX. (NR: 30-40 mm males and 27-38 mm females) • f. Left atrium area (LAA): measured from apical four chamber view ([…]); and • g. Left atrium volume (LAV): derived from area-length measured from apical four chamber view (NR: 18-58 mL males and 22-52 mL females). • 2. Left ventricle diastolic function parameters: • a. E wave: measured from mitral valve pulsed wave Doppler, is the peak velocity of early filling. […] A wave: measured from mitral valve pulsed wave Doppler is the peak velocity of late atrial filling. Not evaluable in patients with AF; • c. E wave deceleration time (EDT): measured from mitral valve pulsed wave Doppler represent the slope of the descending part of E wave; • d. E/A ratio: determines the type of diastolic filling pattern (normal E/A=1-2 and EDT=150-200 ms, abnormal relaxation E/A<1 and […], pseudonormal E/A=0.8-1.5; restrictive […] and EDT<160 ms). Not evaluable in patients with AF; • e. Ea: measured with tissue Doppler method at the lateral and septal side of the mitral annulus from apical four chamber view is the early diastolic velocity. The value has been calculated as the average between Ea lateral and Ea septal. ([…]) (see Nagueh S F et al., Eur J Echocardiogr. 2009; 10(2):165-93); • f. Aa: measured with tissue Doppler method at the lateral and septal side of the mitral annulus from apical four chamber view is the late atrial diastolic velocity. The value has been calculated as the average between Aa lateral and Aa septal. Not evaluable in patients with AF; and • g. E/Ea ratio: this is a derived measure from E and Ea value. This is highly correlated with left ventricle filling pressure and with prognosis in patients with HF. (NR: <13) (see Nagueh S F et al., supra). • 3. Left ventricle systolic function parameters: • a. Left ventricle ejection fraction (LVEF): measured with Simpson biplane method according to international recommendations from apical four chamber view and apical two chamber view. ([…]) (see Lang R M et al., J Am Soc Echocardiogr. 2005; 18(12):1440-63); and • b. Sa: measured with tissue Doppler method at the lateral and septal side of the mitral annulus from apical four chamber view. The value has been calculated as the average between Sa lateral and Sa septal. […] Overall cardiac contraction parameters: • a. […]", "key": {"[1]": {"settings": "0.5 μg/kg/min i.v. for 24 h, at 48 hours"}, "[2]": {"settings": "0.5 μg/kg/min i.v., at 6 hours of infusion"}, "[3]": {"settings": "0.5 μg/kg/min i.v., at 24 hours of infusion"}, "[4]": {"settings": "1.0 μg/kg/min i.v. for 24 h, at 48 hours"}, "[5]": {"settings": "1.0 μg/kg/min i.v., at 6 hours of infusion"}, "[6]": {"settings": "1.0 μg/kg/min i.v., at 24 hours of infusion"}}, "data": [{"molecule": "C[C@]12CCC(=NOCCN)C[C@@H]1C(=O)C[C@@H]1[C@@H]2CC[C@]2(C)C(=O)CC[C@@H]12", "note": "[Istaroxime, (3Z,5a)-3-[(2-aminoethoxy)imino]androstane-6,17-dione]", "values": [{"measurement": "CI change", "setting": "[1]", "result": "0.191 ± 0.426", "unit": "l/min/m^2"}, {"measurement": "CO change", "setting": "[1]", "result": "0.350 ± 0.788", "unit": "L/min"}, {"measurement": "E/A ratio change", "setting": "[1]", "result": "−0.278 ± 1.043"}, {"measurement": "E/e′ ratio change", "setting": "[1]", "result": "−2.570 ± 3.654"}, {"measurement": "LVEF change", "setting": "[1]", "result": "1.28 ± 3.693", "unit": "%"}, {"measurement": "SV change", "setting": "[1]", "result": "4.815 ± 9.832", "unit": "ml/beat"}, {"measurement": "SVI change", "setting": "[1]", "result": "2.762 ± 5.603", "unit": "ml/beat/m^2"}, {"measurement": "Sa change", "setting": "[1]", "result": "0.224 ± 0.811", "unit": "cm/s"}, {"measurement": "A wave change", "setting": "[2]", "result": "1.76 ± 13.572", "unit": "cm/s"}, {"measurement": "CI change", "setting": "[2]", "result": "0.209 ± 0.445", "unit": "l/min/m2"}, {"measurement": "CO change", "setting": "[2]", "result": "0.385 ± 0.843", "unit": "L/min"}, {"measurement": "E wave change", "setting": "[2]", "result": "-3.33 ± 14.764", "unit": "cm/s"}, {"measurement": "E/A ratio change", "setting": "[2]", "result": "−0.286 ± 0.866"}, {"measurement": "E/e′ ratio change", "setting": "[2]", "result": "−3.183 ± 5.628"}, {"measurement": "EDT change", "setting": "[2]", "result": "6.83 ± 47.921", "unit": "ms"}, {"measurement": "LAA change", "setting": "[2]", "result": "−0.33 ± 1.885", "unit": "cm^2"}, {"measurement": "LAV change", "setting": "[2]", "result": "-1.16 ± 11.265", "unit": "mL"}, {"measurement": "S Right V change", "setting": "[2]", "result": "1.25 ± 2.185", "unit": "cm/s"}, {"measurement": "SV change", "setting": "[2]", "result": "7.724 ± 11.752", "unit": "ml/beat"}, {"measurement": "SVI change", "setting": "[2]", "result": "4.198 ± 6.218", "unit": "ml/beat/m2"}, {"measurement": "Sa Left V change", "setting": "[2]", "result": "0.613 ± 1.035", "unit": "cm/s"}, {"measurement": "e′ change", "setting": "[2]", "result": "0.61 ± 1.010", "unit": "cm/s"}, {"measurement": "A wave change", "setting": "[3]", "result": "5.13 ± 10.990", "unit": "cm/s"}, {"measurement": "CI change", "setting": "[3]", "result": "0.264 ± 0.369", "unit": "l/min/m2"}, {"measurement": "CO change", "setting": "[3]", "result": "0.486 ± 0.696", "unit": "L/min"}, {"measurement": "E wave change", "setting": "[3]", "result": "-8.14 ± 17.640", "unit": "cm/s"}, {"measurement": "E/A ratio change", "setting": "[3]", "result": "−0.647 ± 0.812"}, {"measurement": "E/e′ ratio change", "setting": "[3]", "result": "−4.548 ± 4.754"}, {"measurement": "EDT change", "setting": "[3]", "result": "12.88 ± 54.954", "unit": "ms"}, {"measurement": "LAA change", "setting": "[3]", "result": "−1.70 ± 2.463", "unit": "cm^2"}, {"measurement": "LAV change", "setting": "[3]", "result": "-7.94 ± 13.269", "unit": "mL"}, {"measurement": "S Right V change", "setting": "[3]", "result": "1.10 ± 1.780", "unit": "cm/s"}, {"measurement": "SV change", "setting": "[3]", "result": "9.725 ± 12.192", "unit": "ml/beat"}, {"measurement": "SVI change", "setting": "[3]", "result": "5.333 ± 6.664", "unit": "ml/beat/m2"}, {"measurement": "Sa Left V change", "setting": "[3]", "result": "0.679 ± 0.907", "unit": "cm/s"}, {"measurement": "e′ change", "setting": "[3]", "result": "0.94 ± 1.089", "unit": "cm/s"}, {"measurement": "CI change", "setting": "[4]", "result": "0.205 ± 0.407", "unit": "l/min/m^2"}, {"measurement": "CO change", "setting": "[4]", "result": "0.368 ± 0.735", "unit": "L/min"}, {"measurement": "E/A ratio change", "setting": "[4]", "result": "−0.356 ± 0.967"}, {"measurement": "E/e′ ratio change", "setting": "[4]", "result": "−2.218 ± 3.193"}, {"measurement": "LVEF change", "setting": "[4]", "result": "2.06 ± 4.975", "unit": "%"}, {"measurement": "SV change", "setting": "[4]", "result": "5.203 ± 8.078", "unit": "ml/beat"}, {"measurement": "SVI change", "setting": "[4]", "result": "2.913 ± 4.572", "unit": "ml/beat/m^2"}, {"measurement": "Sa change", "setting": "[4]", "result": "0.257 ± 0.771", "unit": "cm/s"}, {"measurement": "A wave change", "setting": "[5]", "result": "5.56 ± 17.280", "unit": "cm/s"}, {"measurement": "CI change", "setting": "[5]", "result": "0.140 ± 0.434", "unit": "l/min/m2"}, {"measurement": "CO change", "setting": "[5]", "result": "0.228 ± 0.760", "unit": "L/min"}, {"measurement": "E wave change", "setting": "[5]", "result": "-9.13 ± 17.464", "unit": "cm/s"}, {"measurement": "E/A ratio change", "setting": "[5]", "result": "−0.317 ± 0.898"}, {"measurement": "E/e′ ratio change", "setting": "[5]", "result": "−2.028 ± 3.652"}, {"measurement": "EDT change", "setting": "[5]", "result": "20.37 ± 50.849", "unit": "ms"}, {"measurement": "LAA change", "setting": "[5]", "result": "−0.84 ± 2.421", "unit": "cm^2"}, {"measurement": "LAV change", "setting": "[5]", "result": "-4.92 ± 14.390", "unit": "mL"}, {"measurement": "S Right V change", "setting": "[5]", "result": "2.00 ± 1.907", "unit": "cm/s"}, {"measurement": "SV change", "setting": "[5]", "result": "7.269 ± 8.134", "unit": "ml/beat"}, {"measurement": "SVI change", "setting": "[5]", "result": "4.187 ± 4.641", "unit": "ml/beat/m2"}, {"measurement": "Sa Left V change", "setting": "[5]", "result": "0.908 ± 0.936", "unit": "cm/s"}, {"measurement": "e′ change", "setting": "[5]", "result": "0.01 ± 1.154", "unit": "cm/s"}, {"measurement": "A wave change", "setting": "[6]", "result": "11.10 ± 16.498", "unit": "cm/s"}, {"measurement": "CI change", "setting": "[6]", "result": "0.140 ± 0.443", "unit": "l/min/m2"}, {"measurement": "CO change", "setting": "[6]", "result": "0.239 ± 0.786", "unit": "L/min"}, {"measurement": "E wave change", "setting": "[6]", "result": "-14.24 ± 24.416", "unit": "cm/s"}, {"measurement": "E/A ratio change", "setting": "[6]", "result": "−0.722 ± 1.068"}, {"measurement": "E/e′ ratio change", "setting": "[6]", "result": "−3.191 ± 2.623"}, {"measurement": "EDT change", "setting": "[6]", "result": "9.79 ± 52.212", "unit": "ms"}, {"measurement": "LAA change", "setting": "[6]", "result": "−2.56 ± 2.972", "unit": "cm^2"}, {"measurement": "LAV change", "setting": "[6]", "result": "-13.81 ± 17.198", "unit": "mL"}, {"measurement": "S Right V change", "setting": "[6]", "result": "1.55 ± 2.012", "unit": "cm/s"}, {"measurement": "SV change", "setting": "[6]", "result": "9.339 ± 8.875", "unit": "ml/beat"}, {"measurement": "SVI change", "setting": "[6]", "result": "5.318 ± 4.955", "unit": "ml/beat/m2"}, {"measurement": "Sa Left V change", "setting": "[6]", "result": "0.803 ± 1.023", "unit": "cm/s"}, {"measurement": "e′ change", "setting": "[6]", "result": "0.91 ± 1.792", "unit": "cm/s"}]}]}
